{"source": "patent US20250025451A1", "about": "“TREATMENT OF CANCER WITH KDM4 INHIBITORS” (Celgene Corporation, priority 2021, published 2025)", "key": {"human cancer cell lines": {"tested_on": "human cancer cell lines", "assay": "apoptosis in human cancer cell lines", "type": "cell-based"}, "[1]": {"tested_on": "SU60 patient-derived colon cancer organoid model", "assay": "organoid colony formation and viability assay, SU60", "type": "cell-based, human", "protocol": "(§1) The IC50 values for Compound 1 inhibition of colony formation and viability were determined for the patient-derived colon cancer organoid models: SU60, T002C, SU62, SU34, SU103, T03SC, and SU106, patient-derived pancreatic cancer organoid models PA016SF, PA0143F, T016P, and T028P, and a patient-derived breast cancer organoid model FS5S3.\n(§2) Colony formation and viability assays were performed in multiwell plates seeded with organoids using an in vitro culture system composed of a Matrigel layer, media containing a defined set of growth factors, and co-culture with Wnt3 A-secreting mouse embryonic fibroblasts. Assays were initiated by adding either DMSO as a negative control, or an inhibitor panobinostatat 100×IC50 concentration as a positive control, or serially diluted Compound 1. The cultures were incubated for 168 or 144 hours after which the number of viable organoids in each test well was assessed respectively using one of two detection methods: CTG or staining with calcein-AM followed by imaging and colony counting. Colony count or viability of cells treated with compound 1 was expressed as a percent of the negative control. Aggregated Percent of Control values were plotted against the corresponding Compound 1 concentration and the absolute IC50 value was determined from a non-linear regression curve as the concentration where inhibition was 50% of the control.\nThe colony formation inhibition assays were performed in multiwell plates seeded with SU60 organoids. The cultures were incubated for 168 hours after which the number of colonies was assessed by staining with calcein AM followed by imaging and colony counting. Colony counts were expressed as a percent of the negative control and aggregated Percent of Control values were plotted against the corresponding Compound 1 concentration. A curve was fitted using non-linear regression."}, "[2]": {"tested_on": "T028P patient-derived pancreatic cancer organoid model", "assay": "organoid colony formation assay, T028P", "type": "cell-based, human", "protocol": "as §1, §2"}, "[3]": {"tested_on": "OCI-LY19 human diffuse large B-cell non-Hodgkin's lymphoma xenograft", "type": "in vivo", "settings": "for Median Tumor Volume Diff.: Day 21 minus Day 0", "protocol": "The therapeutic in vivo efficacy of Compound 1 was evaluated in SU60 colorectal cancer, KYSE-150 esophageal cancer, COH70 triple-negative breast cancer, GXA-3036 gastric adenocarcinoma and OCI-LY19 Diffuse Large B-Cell Non-Hodgkin's Lymphoma xenograft models. In all studies, efficacy was determined based on percent tumor growth inhibition (TGI), differences in mean tumor growth, and statistical assessment of differences in net tumor volume distributions on the day of TGI analysis between control and treated animals. Tolerability was assessed based on differences in mean body weights between control and treated animals over the course of the study.\nThe in vivo efficacy and tolerability of Compound 1, administered orally as the lysine salt form suspended in a 0.5% MC vehicle, were evaluated in female C.B-17 severe combined immunodeficient (scid) mice inoculated subcutaneously with OCI-LY19 tumor cells established from the bone marrow of a patient with diffuse large B-cell non-Hodgkin's lymphoma (DLBCL), stage 4B, at relapse. Each mouse was inoculated subcutaneously in the right flank with 5×10^6 OCI-LY19 tumor cells (0.1 ml) suspended in 50% Matrigel. When the average tumor size reached ˜165 mm3, test animals were randomized into 6 groups consisting of 8 mice per group and treatments were initiated. […] Compound 1-treated mice received the Compound 1 lysine salt form suspended in vehicle at 5, 15, or 50 mg/kg QD or at 25 mg/kg BID on the 3 on/4 off schedule. TGI was determined on Day 21 as (1−Difftreated/Diffcontrol)×100. Individual tumors were measured on the days shown in two dimensions using a caliper, and the tumor volumes (TV) in mm3 were calculated using the formula: TV=0.5 a×b2, where a and b are the long and short tumor diameters in mm, respectively. Mean tumor volumes±SEM were calculated and plotted versus days of dosing (FIG. 15 left panel). Body weights were measured twice weekly. Body weights±SEM were calculated and plotted versus days of dosing (FIG. 15 right panel). The difference in mean net tumor volumes on the day of TGI analysis for treated versus control animals was evaluated statistically using one-way ANOVA followed by Dunnett's multiple comparisons test; Adjusted p-values are shown where a calculated probability (p)≤0.05 was considered statistically significant."}, "IMR-90": {"tested_on": "IMR-90", "assay": "cell-proliferation assay (BrdU, CTG), IMR-90 normal fibroblast", "type": "cell-based", "settings": "IMR-90, (normal) human fetal lung fibroblast, 168 hours", "protocol": "Compound 1 was evaluated in in vitro cell-proliferation assays (BrdU assay, MTS assay, or Cell Titer Glo (CTG) assay) in multiple cancer cell lines and patient-derived organoid models to determine half-maximal inhibitory concentrations (IC50s).\nViability and BrdU thymidine incorporation assays were performed in multiwell plates seeded with cells in growth medium. After seeding, multiwell plates were cultured for 24 hours in a humidified incubator at 37° C. to promote adherence. […] The cultures were incubated for 168 hours after which the number of viable cells or the amount of thymidine incorporation in each test well was assessed by the methods as indicated above. Readouts were performed using an EnVision® Multilabel Reader (PerkinElmer, Waltham, MA) and the results were expressed as a percent of the negative control. Percent of Control values were plotted against the corresponding Compound 1 concentration and the relative IC50 value was determined from a non-linear regression curve as the concentration where inhibition was half-maximal. For cell lines where the number of IC50 determinations exceeded one, the IC50 was expressed as the mean IC50±SD.\nHalf-maximal inhibitory concentration (IC50) values for Compound 1 inhibition of cell proliferation were determined for nine cancer cell lines and one normal human fibroblastcell line."}}, "note": "Read-outs that look alike come from different tables or passages of the source.", "data": [{"smiles": "CC(C)c1ccc(N(C)c2ccc3c(c2)OCC[C@H]3CNc2cnccc2C(=O)O)cc1", "note": "[Compound 1, 3-({[(4R)-7-{methyl[4-(propan-2-yl)phenyl]amino}-3,4-dihydro-2H-1-benzopyran-4-yl]methyl}amino)pyridine-4-carboxylic acid]", "values": [{"measurement": "effect on apoptosis", "setting": "human cancer cell lines", "result": "induces apoptosis"}, {"measurement": "IC50", "setting": "[1]; Homo sapiens, SU60 colorectal carcinoma model, colony formation and viability assays", "result": "< 150", "unit": "nM"}, {"measurement": "IC50", "setting": "[1]; SU60 human colorectal carcinoma organoid, 144 hrs, Colony Counts", "result": 64, "unit": "nM"}, {"measurement": "IC50", "setting": "[1]; SU60 human colorectal carcinoma organoid, 168 hrs, CTG", "result": 23, "unit": "nM"}, {"measurement": "IC50", "setting": "[2]; Homo sapiens, T028P pancreatic carcinoma model", "result": "> 10000", "unit": "nM"}, {"measurement": "IC50", "setting": "[2]; T028P human pancreatic carcinoma organoid, 144 hrs, Colony Counts", "result": "> 10000", "unit": "nM"}, {"measurement": "% TGI", "setting": "[3]; 5 mg/kg PO QD 3 on/4 off, Day 21, 5 mg/kg", "result": 55, "unit": "%"}, {"measurement": "Median Tumor Volume Diff.", "setting": "[3]; 5 mg/kg PO QD 3 on/4 off", "result": 920, "unit": "mm^3"}, {"measurement": "% TGI", "setting": "[3]; 15 mg/kg PO QD 3 on/4 off, Day 21, 15 mg/kg", "result": 83, "unit": "%"}, {"measurement": "Median Tumor Volume Diff.", "setting": "[3]; 15 mg/kg PO QD 3 on/4 off", "result": 345, "unit": "mm^3"}, {"measurement": "% TGI", "setting": "[3]; 25 mg/kg PO BID 3 on/4 off, Day 21, 25 mg/kg", "result": 102, "unit": "%"}, {"measurement": "Median Tumor Volume Diff.", "setting": "[3]; 25 mg/kg PO BID 3 on/4 off", "result": "−32", "unit": "mm^3"}, {"measurement": "% TGI", "setting": "[3]; 50 mg/kg PO QD 3 on/4 off, Day 21, 50 mg/kg", "result": 90, "unit": "%"}, {"measurement": "Median Tumor Volume Diff.", "setting": "[3]; 50 mg/kg PO QD 3 on/4 off", "result": 196, "unit": "mm^3"}, {"measurement": "tolerability (mean body weights)", "setting": "[3]; female C.B-17 scid mice, all Compound 1 regimens", "result": "well-tolerated"}, {"measurement": "Median Tumor Volume Day 21", "setting": "[3]; female C.B-17 scid mice, lysine salt 5 mg/kg PO QD 3 on/4 off", "result": 1088, "unit": "mm^3"}, {"measurement": "Median Tumor Volume Day 21", "setting": "[3]; female C.B-17 scid mice, lysine salt 15 mg/kg PO QD 3 on/4 off", "result": 512, "unit": "mm^3"}, {"measurement": "Median Tumor Volume Day 21", "setting": "[3]; female C.B-17 scid mice, lysine salt 25 mg/kg (free acid equivalents) PO BID 3 on/4 off", "result": 135, "unit": "mm^3"}, {"measurement": "Median Tumor Volume Day 21", "setting": "[3]; female C.B-17 scid mice, lysine salt 50 mg/kg PO QD 3 on/4 off", "result": 361, "unit": "mm^3"}, {"measurement": "IC50", "setting": "IMR-90", "result": "> 1000", "unit": "nM"}]}]}
